Literature values in article PMC3197600 (PLoS Pathogens, 2011).

Tested on: oseltamivir-resistant His274Tyr H1N1 infection
Conditions: human, in vivo; cited from earlier work

Compound: [H]/N=C(\N)N[C@H]1C=C(C(=O)O)O[C@@H]([C@H](OC)[C@H](O)COC(=O)CCCCCCC)[C@@H]1NC(C)=O [CS-8958, laninamivir octanoate]
- effectiveness compared with oseltamivir: not significantly better than oseltamivir
